Data: patent publication US8609644B2, “Amino derivatives of androstanes and androstenes as medicaments for cardiovascular disorders” (priority 2006, dated 2013)
Where a name gives a salt, the structure may show the parent alone. Read-outs that look alike come from different tables or passages of the source.

Tests used:
Na+, K+-ATPase = Na+, K+-ATPase (Canis lupus familiaris, UniProt P50997); test: biochemical; parameters: species or system dog; conditions: read-out: Na+, K+-ATPase Inhibition IC50
[1] = test system: hypertensive ouabain-sensitive rats (os rats); test: Systolic blood pressure fall in hypertensive ouabain-sensitive rats (OS rats); type: in vivo, rat; conditions: 10 μg/kg/day by mouth for four weeks; for HR / SBP: measured 6 hours after the treatment; for SBP: tail-cuff
Protocol: The ability of these compounds to lower blood pressure was tested by using an animal model with induced hypertension, in particular, rats made hypertensive by chronic infusion of ouabain, according to Ferrari P., et al. J. Pharm. Exp. Ther. 1998, 285, 83-94.
The procedure adopted to test the antihypertensive activity of the compounds on the above mentioned model was the following: systolic blood pressure (SBP) and heart rate (HR) were measured by an indirect tail-cuff method. The blood pressure lowering effect was measured in hypertensive ouabain-sensitive rats. The compound, suspended in Methocel 0.5% (w/v), was administered daily at the dose of 10 μg/kg/day by mouth for four weeks. SBP and HR were measured weekly 6 hours after the treatment. The comparison are ouabain sensitive rats (OS rats) and non hypertensive rats (control), both treated only with Methocel 0.5% (w/v). As shown in the following Table 4, treatment with a compound of the present invention lowers the blood pressure of OS rats (170 mm Hg) to almost the level of control rats (150 mm Hg).

fresh rat hepatocytes = test: Metabolism in fresh rat hepatocytes; conditions: fresh rat hepatocytes; test item nominal concentration 45 μM

Structure (SMILES)	IC50 (Na+, K+-ATPase; dog kidney enzyme) [µM]	HR % beats/min [1]	SBP - % (fall vs OS rats) [1] [%]	SBP - mm Hg (fall vs OS rats) [1] [mm Hg]	HR [1] [beats/min.]	SBP [1] [mm Hg]	% of compound metabolized after 60 minutes (fresh rat hepatocytes) [%]	IC50 (Na+, K+-ATPase) [µM]
CON=C1CC2CC(=NOCCN)CCC2(C)C2CCC3(C)C(=O)CCC3C12 (mixture of isomers) [I-bt, (E,Z)-3-(2-Aminoethoxyimino)-7-(E)-methoxyiminoandrostan-17-one fumarate]	12	0%	8.3	14.2	368	155.8	–	–
COC1CC2CC(=NOCCN)CCC2(C)C2CCC3(C)C(=O)CCC3C12 (mixture of isomers) [I-ee, (E,Z) 3-(2-Aminoethoxyimino)-7α-methoxyandrostane-17-one hemifumarate]	–	+5.1%	11.0	19.0	381	151.0	22	14
